Experimental data: patent publication US20010021697A1, “METHODS AND COMPOSITIONS FOR THE TREATMENT OF MAMMALIAN INFECTIONS EMPLOYING MEDICAMENTS COMPRISING HYMENOPTERA VENOM, PROTEINAGEOUS OR POLYPEPTIDE COMPONENTS THEREOF, OR ANALOGUES OF SUCH PROTEINACEOUS OR POLYPEPTIDE COMPONENTS” (priority 1987, published 2001)

Columns and labels:
S. aureus [1] = assay: Automated MIC assay (Sensititre) of antibiotics with and without HBV; format: cell-based; conditions: with vs without 4 ug/ml HBV
S. epidermidis = assay: as above; format: cell-based; conditions: with vs without 4 ug/ml HBV
Streptococcus faecalis = assay: as above; format: cell-based; conditions: Streptococcus faecalis strain 81-; with vs without 4 ug/ml HBV
E. coli G1108E = assay: Checkerboard titration synergy assay of melittin analogues with polymyxin B; format: cell-based; conditions: for relative in vitro activity, place in ascending order: 5 ug/ml peptide with 6 units/ml polymyxin B, delay time until mid-log phase (FIG. 26)
[2] = Relative activity of analogues with respect to native melittin; format: cell-based
Method: Also some of then analogues mentioned above were tested to determine their relative activities with respect to native melittin. The relative activity is calculated as follows: [formula]

[3] = system: 30 random strains of bacteria; conditions: Sephadex G-50 purified melittin fraction; cited from earlier work
[4] = system: E. Coli strain No. G1108E; assay: Checkerboard titration synergy assay of natural melittin and analogue #6 with polymyxin B; format: cell-based; conditions: for synergistic activity with polymyxin B compared with natural melittin: E. coli, 10 ug peptide + 6 units polymyxin B
S. aureus [5] = assay: Equivalent doses of melittin fraction and whole honeybee venom with and without kanamycin (growth curves); format: cell-based; conditions: for MEAN A660: doses of what is present: KANA = 2.5, MEL = 1.6, HBV = 2 (ug/ml)
E. coli = assay: Automated MIC assay (Sensititre) of antibiotics with and without HBV; format: cell-based; conditions: with vs without 4 ug/ml HBV
[6] = S. aureus strain QC (printed 0C)
[7] = 0 hrs, doses of what is present: Polymyxin B 3 units, peptide 5 ug
[8] = 0 hrs, doses of what is present: Polymyxin B 6 units, peptide 10 ug
[9] = 2 hrs, doses of what is present: Polymyxin B 3 units, peptide 5 ug
[10] = 2 hrs, doses of what is present: Polymyxin B 6 units, peptide 10 ug
[11] = 4 hrs, doses of what is present: Polymyxin B 3 units, peptide 5 ug
[12] = 4 hrs, doses of what is present: Polymyxin B 6 units, peptide 10 ug
[13] = 6 hrs, doses of what is present: Polymyxin B 3 units, peptide 5 ug
[14] = 6 hrs, doses of what is present: Polymyxin B 6 units, peptide 10 ug
[15] = 8 hrs, doses of what is present: Polymyxin B 3 units, peptide 5 ug
[16] = 8 hrs, doses of what is present: Polymyxin B 6 units, peptide 10 ug
[17] = 12 hrs, doses of what is present: Polymyxin B 3 units, peptide 5 ug
[18] = 12 hrs, doses of what is present: Polymyxin B 6 units, peptide 10 ug

## Penicillin
S. aureus [1]; S. aureus strain 51072
  effect of 4 ug/ml HBV on the MIC of the antibiotic: +^6 (A (+) indicates a MIC decrease greater than or equal to two dilution steps.)
S. aureus [1]; [6]
  effect of 4 ug/ml HBV on the MIC of the antibiotic: −^5 (A (−) indicates a MIC decrease of less than two dilution steps.)
S. epidermidis; S. epidermidis strain 5905
  effect of 4 ug/ml HBV on the MIC of the antibiotic: − (A (−) indicates a MIC decrease of less than two dilution steps.)
S. epidermidis; S. epidermidis strain 5907
  effect of 4 ug/ml HBV on the MIC of the antibiotic: − (A (−) indicates a MIC decrease of less than two dilution steps.)
S. epidermidis; S. epidermidis strain 7905
  effect of 4 ug/ml HBV on the MIC of the antibiotic: + (A (+) indicates a MIC decrease greater than or equal to two dilution steps.)
S. epidermidis; S. epidermidis strain 7908
  effect of 4 ug/ml HBV on the MIC of the antibiotic: + (A (+) indicates a MIC decrease greater than or equal to two dilution steps.)
S. epidermidis; S. epidermidis strain 39817
  effect of 4 ug/ml HBV on the MIC of the antibiotic: + (A (+) indicates a MIC decrease greater than or equal to two dilution steps.)
Streptococcus faecalis
  effect of 4 ug/ml HBV on the MIC of the antibiotic: − (A (−) indicates a MIC decrease of less than two dilution steps.)

## Synthetic Melittin: Synthetic melittin purchased from Peninsula Laboratories, Belmont, Calif.
E. coli G1108E
  relative in vitro activity, place in ascending order: 5

## NPS-Melittin: o-nitrophenyl sulfenyl group attached to the number 19 tryptophan residue of natural melittin
E. coli G1108E
  relative in vitro activity, place in ascending order: 3

## Melittin (1-20) - Orn-Orn-Orn-Orn-Gln-Gln-NH2 [Analogue #2]
E. coli G1108E
  relative in vitro activity, place in ascending order: 6
[2]
  Relative Activity: 200%

## Melittin (1-20) - NH2 [Analogue #1]
[2]
  Relative Activity: 20%

## Melittin (1-20) - Arg-Arg-Arg-Arg-Gln-Gln-NH2 [Analogue #5]
E. coli G1108E
  relative in vitro activity, place in ascending order: 8
[2]
  Relative Activity: 300%

## Melittin (1-20)-Lys-Arg-Lys-Arg-Gln-Gln-NH2.
[3]
  antibacterial activity: potent antibacterial activity
[4]; [7]
  Average optical densities (OD660): .013
[4]; [8]
  Average optical densities (OD660): .013
[4]; [9]
  Average optical densities (OD660): .072
[4]; [10]
  Average optical densities (OD660): .072
[4]; [11]
  Average optical densities (OD660): .833
[4]; [12]
  Average optical densities (OD660): .0827
[4]; [13]
  Average optical densities (OD660): 1.10
[4]; [14]
  Average optical densities (OD660): 1.09
[4]; [15]
  Average optical densities (OD660): 1.11
[4]; [16]
  Average optical densities (OD660): 1.10
[4]; [17]
  Average optical densities (OD660): 1.18
[4]; [18]
  Average optical densities (OD660): 1.19
E. coli G1108E
  relative in vitro activity, place in ascending order: 2
E. coli G1108E; used alone at 10 ug/ml or less
  effect of the peptide alone on the growth of E. coli: no effect
S. aureus [5]; T0
  MEAN A660: 0.021
S. aureus [5]; T2
  MEAN A660: 0.080
S. aureus [5]; T4
  MEAN A660: 0.374
S. aureus [5]; T6
  MEAN A660: 1.099
S. aureus [5]; T8
  MEAN A660: 1.288
S. aureus [5]; T12
  MEAN A660: 1.339
S. aureus [5]; T24
  MEAN A660: 1.415
S. aureus [5]; equivalent doses with equal doses of kanamycin (FIG. 15)
  antibacterial activity of the melittin fraction compared with whole HBV, in combination with kanamycin: None of the optical densities at any time point on the two curves are significantly different
S. aureus [5]; equivalent doses, without antibiotic (FIG. 14)
  antibacterial activity of the melittin fraction compared with whole HBV: No significant differences

## H-Gly-Ile-Gly-Ala-Val-Leu-Lys-Val-Leu-Thr-Thr-Gly-Leu-Pro-Ala-Leu-Ile-Ser-Trp-Ile-Lys-Lys-Lys-Lys-Gln-Gln-NH2 (H-GIGAVLKVLTTGLPALISWIKKKKQQ-NH2) [Analogue #6]
[4]; [7]
  Average optical densities (OD660): .013
[4]; [8]
  Average optical densities (OD660): .013
[4]; [9]
  Average optical densities (OD660): .072
[4]; [10]
  Average optical densities (OD660): .072
[4]; [11]
  Average optical densities (OD660): .831
[4]; [12]
  Average optical densities (OD660): .824
[4]; [13]
  Average optical densities (OD660): 1.07
[4]; [14]
  Average optical densities (OD660): 1.09
[4]; [15]
  Average optical densities (OD660): 1.09
[4]; [16]
  Average optical densities (OD660): 1.11
[4]; [17]
  Average optical densities (OD660): 1.16
[4]; [18]
  Average optical densities (OD660): 1.17
[4]
  synergistic activity with polymyxin B compared with natural melittin: At no time could a significant difference be detected
[4]; listed as Analogue No. 6
  synergistic activity with polymyxin B compared with natural melittin: activity equivalent to natural melittin
[4]; estimated from Table 11
  difference between the specific activities of melittin versus analogue #6: less than 10%
E. coli G1108E
  relative in vitro activity, place in ascending order: 4
[2]
  Relative Activity: 100%

## Venomycin
S. aureus [1]; S. aureus strain 51072
  effect of 4 ug/ml HBV on the MIC of the antibiotic: +^ (A (+) indicates a MIC decrease greater than or equal to two dilution steps.)
S. aureus [1]; [6]
  effect of 4 ug/ml HBV on the MIC of the antibiotic: +^ (A (+) indicates a MIC decrease greater than or equal to two dilution steps.)
S. epidermidis; S. epidermidis strain 5905
  effect of 4 ug/ml HBV on the MIC of the antibiotic: − (A (−) indicates a MIC decrease of less than two dilution steps.)
S. epidermidis; S. epidermidis strain 5907
  effect of 4 ug/ml HBV on the MIC of the antibiotic: − (A (−) indicates a MIC decrease of less than two dilution steps.)
S. epidermidis; S. epidermidis strain 7905
  effect of 4 ug/ml HBV on the MIC of the antibiotic: − (A (−) indicates a MIC decrease of less than two dilution steps.)
S. epidermidis; S. epidermidis strain 7908
  effect of 4 ug/ml HBV on the MIC of the antibiotic: + (A (+) indicates a MIC decrease greater than or equal to two dilution steps.)
S. epidermidis; S. epidermidis strain 39817
  effect of 4 ug/ml HBV on the MIC of the antibiotic: − (A (−) indicates a MIC decrease of less than two dilution steps.)
Streptococcus faecalis
  effect of 4 ug/ml HBV on the MIC of the antibiotic: − (A (−) indicates a MIC decrease of less than two dilution steps.)

## Melittin (1-20) - Lys-Arg-Lys-Arg-Gly-Gly-NH2 [Analogue #4]
E. coli G1108E
  relative in vitro activity, place in ascending order: 7

## Melittin (1-20) - Gly-Gly-Gly-Gly-Gln-Gln-NH2 [Analogue #7]
E. coli G1108E
  relative in vitro activity, place in ascending order: 1
[2]
  Relative Activity: 20%

## Gentamicin
S. aureus [1]; S. aureus strain 51072
  effect of 4 ug/ml HBV on the MIC of the antibiotic: +^ (A (+) indicates a MIC decrease greater than or equal to two dilution steps.)
S. aureus [1]; [6]
  effect of 4 ug/ml HBV on the MIC of the antibiotic: +^ (A (+) indicates a MIC decrease greater than or equal to two dilution steps.)
E. coli; E. coli strain 1173
  effect of 4 ug/ml HBV on the MIC of the antibiotic: − (A (−) indicates a MIC decrease of less than two dilution steps.)
E. coli; E. coli strain 4302
  effect of 4 ug/ml HBV on the MIC of the antibiotic: + (A (+) indicates a MIC decrease greater than or equal to two dilution steps.)
E. coli; E. coli strain 19033
  effect of 4 ug/ml HBV on the MIC of the antibiotic: + (A (+) indicates a MIC decrease greater than or equal to two dilution steps.)
E. coli; E. coli strain QC
  effect of 4 ug/ml HBV on the MIC of the antibiotic: + (A (+) indicates a MIC decrease greater than or equal to two dilution steps.)
S. epidermidis; S. epidermidis strain 5905
  effect of 4 ug/ml HBV on the MIC of the antibiotic: − (A (−) indicates a MIC decrease of less than two dilution steps.)
S. epidermidis; S. epidermidis strain 5907
  effect of 4 ug/ml HBV on the MIC of the antibiotic: − (A (−) indicates a MIC decrease of less than two dilution steps.)
S. epidermidis; S. epidermidis strain 7905
  effect of 4 ug/ml HBV on the MIC of the antibiotic: − (A (−) indicates a MIC decrease of less than two dilution steps.)
S. epidermidis; S. epidermidis strain 7908
  effect of 4 ug/ml HBV on the MIC of the antibiotic: + (A (+) indicates a MIC decrease greater than or equal to two dilution steps.)
S. epidermidis; S. epidermidis strain 39817
  effect of 4 ug/ml HBV on the MIC of the antibiotic: + (A (+) indicates a MIC decrease greater than or equal to two dilution steps.)
Streptococcus faecalis
  effect of 4 ug/ml HBV on the MIC of the antibiotic: − (A (−) indicates a MIC decrease of less than two dilution steps.)
